Active and inactive are the calls of the source.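 How the source made its calls: active means AC50 no more than ten times the top concentration tested, that is within one log above it; inconclusive means flat curve fit with activity between 30% and 70%, or invalid poor fit; inactive means AC50 beyond ten times the top tested dose.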 Some results are limits rather than exact numbers.

The assay concerns S. cerevisiae Mot1-301 ts growth rescue, BacTiter-Glo ATP luminescence. The assay can be described thus: growth rescue of Mot1-301 ts yeast, confirmation, SUMOylation pathway inhibitor project, whole organism, S. cerevisiae, Mot1-301 ts mutant, luminescence, dose retest (AID 463204).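 Further: growth at restrictive 38.5 degrees C of Mot1-301 OY566 strain; actives raise luminescence by restoring growth of the ts mutant at high temperature.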
As to `COc1ccccc1/C=C/C(=O)N1CCc2cc(OC)c(OC)cc2C1C` (stereo not drawn), the AC50 (commonly the concentration at which the activity in the assay is half-maximal) was > 42 µM (inactive). The same measure for `CCCCCCCCCCOC(=O)Cn1c(COc2ccc(OC)cc2)[n+](C)c2ccccc21`: 6.72 µM; for `CC(=O)N(C)c1ccc(N2CCOCC2)c2c1C(=O)c1ccccc1C2=O`: > 42 µM (inactive); for `Cc1c(NC(=O)c2ccc(N(C)S(C)(=O)=O)cc2)c(=O)n(-c2ccccc2)n1C`: > 42 µM (inactive). In the case of `Cc1ccc(S(=O)(=O)N2[C@@H](c3ccccc3F)C(C(=O)O)=CC[C@H]2c2ccc3c(c2)OCO3)cc1`, the AC50 was > 42 µM (inactive).

Regarding `O=Cc1ccccc1OCCN1CCCC1=O`, the AC50 is > 42 µM (inactive).

In the case of `COc1ccccc1N1CCN(C(=O)c2ccc(-c3ccccc3)cc2)CC1`, the AC50 is > 42 µM (inactive). `O=C(COC(=O)C1COc2ccccc2O1)NC1CCS(=O)(=O)C1` (stereo not drawn): the AC50 is > 42 µM (inactive). As for `CCC1(c2ccccc2)NC(=O)N(CC(=O)N(C)CC(=O)Nc2ccc(F)c(F)c2F)C1=O` (stereo not drawn), the figure is > 42 µM (inactive). The same measure for `O=C(CS(=O)c1ccc(C(F)(F)F)cc1[N+](=O)[O-])Oc1ccc(Cl)cc1` (stereo not drawn): 1.47 µM; for `COc1ccc(C2SCC(=O)Nc3c2c(=O)[nH]n3C2CCCCC2)cc1` (stereo not drawn): > 42 µM (inactive). As for `COc1ccc(CN(CC(=O)NCC2CCCO2)C(=O)CCC(=O)Nc2cc(C)on2)cc1` (stereo not drawn), the figure is > 42 µM (inactive). As for `O=c1cc(C(F)(F)F)c2sc(N3CCCCC3)nc2[nH]1`, the AC50 was > 42 µM (inactive). The same measure for `CS(=O)(=O)N1CCCC(C(=O)Nc2ccc(F)cc2F)C1` (stereo not drawn): > 42 µM (inactive); for `COc1ccc(NC(=O)CN2C(=O)c3ccccc3S2(=O)=O)cc1OC`: > 42 µM (inactive); for `Cc1ccc(Nc2cc(C)nc3c(C)ccc([N+](=O)[O-])c23)cc1`: 13.8 µM. `CCN(CC)c1ccc2c(C)c(CN3CCOCC3)c(=O)oc2c1`: the AC50 was > 42 µM (inactive). The same measure for `COc1cc(CNCCN2CCOCC2)ccc1OCc1ccccc1Cl`: > 42 µM (inactive); for `COc1ccc2nc(NC(=O)c3cc(S(=O)(=O)N4CCOCC4)ccc3C)sc2c1`: > 42 µM (inactive); for `O=C(CCCCCn1c(=O)[nH]c2ccsc2c1=O)NCc1ccc(F)cc1`: > 42 µM (inactive). The same measure for `C=CCn1c(-c2ccc(OC)cc2)nc2ccccc21`: > 42 µM (inactive); for `O=C(OCc1nc2ccsc2c(=O)[nH]1)c1ccco1`: > 42 µM (inactive); for `S=c1[nH]nc(-c2ccco2)n1-c1ccc(Br)cc1`: > 42 µM (inactive). The same measure for `O=C(CCC(=O)OCC(=O)c1ccc(Br)cc1)Nc1cccc2cccnc12`: > 42 µM (inactive). For `Cc1ccc(C)c(OCCCC(=O)N2CCOCC2)c1`, the AC50 was > 42 µM (inactive).

For the compound `CCOC(=O)C1C(=O)NC(SCC(=O)Nc2nccs2)=C(C#N)C1c1ccccc1OCC` (stereo not drawn), the AC50 was > 42 µM (inactive). Take `COCCCNS(=O)(=O)c1ccc(Oc2ncc(C(F)(F)F)cc2Cl)cc1`: the AC50 is > 42 µM (inactive). For `CC1(C)Oc2ccc3ccc(=O)oc3c2/C(=C/Nc2ccc(O)cc2)C1=O`, the AC50 was > 42 µM (inactive). As for `COc1ccc(C(=O)O/N=C(\N)c2ccccc2)cc1OC`, the figure is > 42 µM (inactive); as for `COc1ccc(C(=O)NC(=S)Nc2ccc(CN3CCCCC3)cc2)cc1Cl`, > 42 µM (inactive); as for `NC(=O)NC(=O)COC(=O)/C=C/c1cccs1`, > 42 µM (inactive).

Take `CSc1ccccc1-n1nnnc1SCC(=O)Nc1ccccc1C`: the AC50 was > 42 µM (inactive). As for `C=C(C)Cc1c(C)c(C#N)c2[nH]c3ccccc3n2c1=O`, the figure is > 42 µM (inactive); as for `O=C1CC(=O)C(n2cncn2)C(c2ccc(Cl)cc2Cl)C1` (stereo not drawn), > 42 µM (inactive); as for `Cn1c(CN2CCOCC2)nnc1SCC(=O)Nc1cc(Cl)ccc1Cl`, > 42 µM (inactive). As for `Cc1ccc(NS(=O)(=O)c2cc(C(=O)Nc3cccc([N+](=O)[O-])c3)ccc2C)cc1`, the figure is > 42 µM (inactive). Take `C=CCOc1ccccc1CN1CCCC(CCC(=O)N(C)CCc2ccccn2)C1` (stereo not drawn): the AC50 was > 21 µM (inactive). As for `CN(C)c1cccc(C(=O)Nc2cc(C(F)(F)F)ccc2-n2cnc3ccccc32)c1`, the figure is > 42 µM (inactive); as for `C/C(=C\C(=O)N1CCc2ccccc21)C(=O)O`, > 42 µM (inactive). As for `O=C(NCc1nc(-c2ccccc2)no1)c1cccs1`, the figure is > 42 µM (inactive); as for `c1ccc(CCCc2nc(-c3cccnc3)no2)cc1`, > 42 µM (inactive). The same measure for `CCOC(=O)COc1nc(-c2ccc(C)cc2)cc(-c2ccco2)c1C#N`: > 42 µM (inactive); for `Cc1[nH]c(C)c(S(=O)(=O)NCC(C)c2ccccc2)c1C(=O)N1CCCCC1` (stereo not drawn): > 42 µM (inactive); for `CCN1C(=O)N(c2ccc(Cl)cc2)C(C)=CC1(C)C`: > 42 µM (inactive). With `COc1ccc(-c2oc3ccc(-c4cc(OC)c(OC)c(OC)c4)cc3c2C(=O)c2ccc(OC)nc2)cc1`, the AC50 is > 42 µM (inactive).

Turning to `CCc1nnc(NC(=O)CSc2ccc(-c3ccc(-n4cccn4)cc3)nn2)s1`, the AC50 is > 42 µM (inactive). With `O=C1CCCC2=C1C(c1ccncc1)c1c(nc(SCc3ccccc3Cl)[nH]c1=O)N2` (stereo not drawn), the AC50 was > 42 µM (inactive). `Cc1cccc(N(Cc2ccccc2)C(=O)CSC(C)C(=O)Nc2cc(C)on2)c1` (stereo not drawn): the AC50 was > 42 µM (inactive). For the compound `CC(=O)c1ccc2noc(-c3ccc(F)cc3)c2c1`, the AC50 is > 42 µM (inactive).

As for `CC(C)CCn1c(=O)c2ccccc2c2ccccc2c1=O`, the AC50 is > 42 µM (inactive). As for `COc1ccc(S(=O)(=O)NCC(=O)N(CC(=O)NCc2ccco2)Cc2ccccc2)cc1`, the figure is > 42 µM (inactive); as for `CCOC(=O)c1ccccc1NC(=O)CSc1ccc(-c2ccccn2)nn1`, > 42 µM (inactive); as for `CCOC(=O)c1cnc2c(C)c(Cl)ccc2c1N1CCOCC1`, > 42 µM (inactive). The same measure for `CSc1ccc(CCNC(=O)C2CCCN(S(=O)(=O)N3CCOCC3)C2)cc1` (stereo not drawn): > 42 µM (inactive); for `Cc1cnc(NC(=O)CN2CCN(c3ccccc3F)CC2)s1`: > 42 µM (inactive).

Take `C/C=C(/C)C(=O)OC1c2c(ccc3ccc(=O)oc23)OC(C)(C)C1OC(=O)/C(C)=C\C` (stereo not drawn): the AC50 was > 42 µM (inactive). The same measure for `CC1=NC2(CCCc3c2no[n+]3[O-])N(O)C1(C)C` (stereo not drawn): > 42 µM (inactive); for `CN(C)c1ccc2nc3ccc(=[N+](C)C)cc-3sc2c1`: > 42 µM (inactive); for `CC1(OC(=O)CCc2ccccc2)C(=O)C=C2C=C(c3ccc(C#N)cc3)N(CC3CC3)C=C2C1=O` (stereo not drawn): > 42 µM (inactive). The same measure for `COc1ccc(NC(=S)Nc2ccccc2OC)c(OC)c1`: > 42 µM (inactive).

For `Cc1nc2ccc(NC(=O)c3ccco3)cc2s1`, the AC50 was > 42 µM (inactive). The same measure for `N=c1n(CCCOc2ccc(Br)cc2)c2ccccc2n1CC(N)=O`: > 42 µM (inactive); for `COc1ccc(-c2nnc(-c3cc4c(ccc5ccccc54)oc3=O)o2)cc1`: > 42 µM (inactive).

Values taken from PubChem BioAssay AID463204 (Broad Institute, 2010).
